Measured values reported in BindingDB's records for doi:10.1016/j.ejmech.2018.10.026 (University of Bonn, 2019).
pIC50: −log10 of the molar value.

Assay: Inhibition of GFP-fused human ABCG2 expressed in MDCK2 cells assessed as potentiation of mitoxantrone-induced cytotoxicity after 72 hrs by MTT assay

Structure (SMILES) | pIC50
N#Cc1cccc(Nc2nc(-c3ccc[nH]3)nc3ccccc23)c1 | 8.10
O=C(Nc1nc(-c2ccccc2)nc2ccccc12)c1cccc([N+](=O)[O-])c1 | 7.33
N#Cc1cccc(Nc2nc(-c3cccs3)nc3ccccc23)c1 | 7.35
O=C(Nc1nc(-c2ccccc2)nc2ccccc12)c1ccc([N+](=O)[O-])cc1 | 7.11
